The text below walks through data of patent publication US8003331B2, “Method for identifying target protein of drug and method for screening therapeutic agent for diabetes using the target protein” (Astellas Pharma Inc., priority 2005, dated 2011).

Structures are written as SMILES.

For experiment [1], the target named is T1, TARDBP (Homo sapiens, UniProt Q13148).
T1 construct: endogenous in cells; host or cells: THP-1
In words: pull-down with 8 GST fusion chaperone proteins from THP-1 cell extract, negative staining and mass spectrum identification. Type of experiment: binding. To be noted: 100 μM thalidomide added or not added. The method, then: Thalidomide has significant drug effects for sleep inducing agents, multiple myeloma, HIV, Hansen's disease and the like, but direct target protein of thalidomide has so far been unclear. Accordingly, an attempt was made to screen a target protein of thalidomide using the method shown in the aforementioned “Example 2(2). A human monocytic cell line THP-1 (ATCC) was cultured and suspended in 60 ml of a minimum essential medium (RPMI 1640, Invitrogen) containing 10% fetal calf serum (FCS) and cultured on a plate of 10 cm in diameter (Asahi Techno Glass) until reached 10^6 cells/ml. The cells were collected by 3 minutes of centrifugation at 1200 rpm, washed once with 10 ml of ice-cooled PBS and then lysed by adding 2.0 ml of the aforementioned buffer A, and the cell extract was collected. […] Under a condition of adding or not adding 100 μM in final concentration of thalidomide ((−)-thalidomide, Sigma), a pull-down test was carried out by mixing this soluble fraction of cell extract with 8 species of GST fusion chaperone proteins purified on the glutathione Sepharose beads (a mixture of GST-HSPA1A, GST-HSPH1, GST-HSPCA, GST-HSPD1, GST-DNAJA1, GST-HSPB1, GST-HSPE1 and GST-HSPA4; respective proteins were mixed in 0.5 μg portions). In this connection, steps and conditions of the pull-down test were the same as the aforementioned Example 2(2). […]

In experiment [2] the test system is TNF-α. Kind of experiment: TNF-α gene expression in HeLa S3 cell (real time PCR, corrected by β-actin). Type of experiment: cell-based, human. Here is the method: The pcDNA-TARDBP or an empty vector (pcDNA3.1) (Invitrogen) was transferred into HeLa S3 cell. Illustratively, the HeLa S3 cell (ATCC) was firstly cultured in a 12 well culture plate until it reached a state of 70% confluent, by adding 1 ml of a minimum essential medium DMEM (Gibco) containing 10% fetal bovine serum (Sigma) to each well of the culture plate. The medium was substituted by 0.5 ml per well of a serum-free medium OPTI MEM I (Invitrogen), and 0.8 μg/well of the pcDNA-TARDBP or pcDNA3.1 was transiently transferred using Lipofect amine 2000 (Invitrogen). After 12 hours of the culturing, this was substituted by 1 ml/well of DMEM containing 10% of fetal bovine serum and further cultured for 12 hours. This was further cultured for 16 hours under a condition of adding or not adding okadaic acid (Wako Pure Chemical Industries) to a final concentration of 50 nM. In this case, […] was added a part of the cells simultaneously with the okadaic acid treatment. The medium was discarded, the cells were washed twice with ice-cooled PBS, and then these cells were frozen and stored at −80° C.
Total RNA was prepared from each cell frozen in the aforementioned Example 9(2), using a reagent for RNA extraction use (Isogen; Nippon Gene) and in accordance with the instructions attached thereto. The thus prepared each total RNA was then treated with a deoxyribonuclease (Nippon Gene), subjected to phenol/chloroform treatment and ethanol precipitation and dissolved in sterile water. Using 1 μg of this total RNA, its reverse transcription into a single-stranded cDNA was carried out in a system of 20 μl using a kit for reverse transcription reaction use (Advantage™ RT-for-PCR Kit; Clontech).
Six oligonucleotides (SEQ ID NO:97 to SEQ ID NO:102) were designed and synthesized as primers of PCR for the measurement of gene expression quantity. A combination of SEQ ID NO:97 and SEQ ID NO:98 was used for human β-actin gene, and a combination of SEQ ID NO:99 and SEQ ID NO:100 for human TNF-α gene, and a combination of SEQ ID NO:101 and SEQ ID NO:102 for human TARDBP gene, respectively. […]
The expression quantities of human TNF-α gene and human TARDBP gene in each sample were corrected by the expression quantity of β-actin gene based on the following equation. [Corrected expression quantity of TNF-α or TARDBP]=[expression quantity of TNF-α or TARDBP gene (raw data)/[expression quantity of β-actin gene (raw data)]
In comparing the expression quantities of TNF-α and TARDBP genes, relative amounts were calculated by regarding the expression quantity in a cell, into which an empty vector (pcDNA3.1) was transferred and which was treated only with the solvent (DMSO), as 100, with the results sown in FIG. 9 and FIG. 10. […]
For orientation: Quantitative PCR measures a nucleic acid by following its amplification.

T1 sequence (Q13148 whole entry): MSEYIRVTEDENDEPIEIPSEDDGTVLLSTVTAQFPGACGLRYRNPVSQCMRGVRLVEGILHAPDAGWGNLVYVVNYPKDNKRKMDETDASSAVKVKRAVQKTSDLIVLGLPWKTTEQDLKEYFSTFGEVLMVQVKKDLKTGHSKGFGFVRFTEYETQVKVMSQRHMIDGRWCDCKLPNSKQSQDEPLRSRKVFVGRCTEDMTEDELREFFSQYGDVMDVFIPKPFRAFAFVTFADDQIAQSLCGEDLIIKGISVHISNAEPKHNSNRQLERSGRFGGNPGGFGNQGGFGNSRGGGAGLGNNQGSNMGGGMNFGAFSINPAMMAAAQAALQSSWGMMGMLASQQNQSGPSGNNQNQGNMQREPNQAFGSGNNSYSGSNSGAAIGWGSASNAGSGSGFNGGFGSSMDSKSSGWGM

On to `O=C1CCC(N2C(=O)c3ccccc3C2=O)C(=O)N1` (single isomer, unassigned; (-)) [thalidomide, (−)-thalidomide], for which the “band of about 45 kDa (TARDBP) binding to GST fusion chaperone protein mixture” value in experiment [1] is listed as “present only when thalidomide was added”. Besides, the “action to suppress expression of TNF-α” value in experiment [2] (TARDBP high expression cell (pcDNA-TARDBP HeLa S3), with 50 nM okadaic acid) is “not observed”. The “suppression of expression acceleration of TNF-α by okadaic acid” value in experiment [2] (control cell (empty vector HeLa S3), thalidomide '100' added with 50 nM okadaic acid, 16 hours) was around 50%.
